Reference: the NIST ThermoML archive (doi:10.1021/je3013205)
± gives the expanded uncertainty stated by the source.

Test: xn = mol fraction of the nth substance listed
Conditions: 101 kPa, Liquid, Vibrating tube method

SMILES: NCCO [2-aminoethan-1-ol] + CC(C)O
- mass density (283.15 K, x2 = 0): 1024.11 ± 0.25 kg/m3
- mass density (283.15 K, x2 = 0.1001): 999.024 ± 0.2 kg/m3
- mass density (283.15 K, x2 = 0.1999): 974.32 ± 0.18 kg/m3
- mass density (283.15 K, x2 = 0.3002): 949.806 ± 0.16 kg/m3
- mass density (283.15 K, x2 = 0.4001): 925.587 ± 0.15 kg/m3
- mass density (283.15 K, x2 = 0.5001): 902.006 ± 0.14 kg/m3
- mass density (283.15 K, x2 = 0.5999): 879.054 ± 0.13 kg/m3
- mass density (283.15 K, x2 = 0.7): 856.17 ± 0.13 kg/m3
- mass density (283.15 K, x2 = 0.8002): 834.572 ± 0.12 kg/m3
- mass density (283.15 K, x2 = 0.8999): 813.792 ± 0.12 kg/m3
- mass density (293.15 K, x2 = 0): 1016.23 ± 0.24 kg/m3
- mass density (293.15 K, x2 = 0.1001): 990.993 ± 0.2 kg/m3
- mass density (293.15 K, x2 = 0.1999): 966.334 ± 0.18 kg/m3
- mass density (293.15 K, x2 = 0.3002): 941.791 ± 0.16 kg/m3
- mass density (293.15 K, x2 = 0.4001): 917.446 ± 0.15 kg/m3
- mass density (293.15 K, x2 = 0.5001): 893.95 ± 0.14 kg/m3
- mass density (293.15 K, x2 = 0.5999): 870.943 ± 0.13 kg/m3
- mass density (293.15 K, x2 = 0.7): 848.018 ± 0.13 kg/m3
- mass density (293.15 K, x2 = 0.8002): 826.391 ± 0.13 kg/m3
- mass density (293.15 K, x2 = 0.8999): 805.582 ± 0.13 kg/m3
- mass density (303.15 K, x2 = 0): 1008.32 ± 0.24 kg/m3
- mass density (303.15 K, x2 = 0.1001): 982.903 ± 0.2 kg/m3
- mass density (303.15 K, x2 = 0.1999): 958.311 ± 0.18 kg/m3
- mass density (303.15 K, x2 = 0.3002): 933.723 ± 0.17 kg/m3
- mass density (303.15 K, x2 = 0.4001): 909.315 ± 0.15 kg/m3
- mass density (303.15 K, x2 = 0.5001): 885.794 ± 0.14 kg/m3
- mass density (303.15 K, x2 = 0.5999): 862.727 ± 0.14 kg/m3
- mass density (303.15 K, x2 = 0.7): 839.735 ± 0.13 kg/m3
- mass density (303.15 K, x2 = 0.8002): 818.066 ± 0.13 kg/m3
- mass density (303.15 K, x2 = 0.8999): 797.19 ± 0.13 kg/m3
- mass density (313.15 K, x2 = 0): 1000.37 ± 0.23 kg/m3
- mass density (313.15 K, x2 = 0.1001): 974.928 ± 0.2 kg/m3
- mass density (313.15 K, x2 = 0.1999): 950.234 ± 0.18 kg/m3
- mass density (313.15 K, x2 = 0.3002): 925.597 ± 0.17 kg/m3
- mass density (313.15 K, x2 = 0.4001): 901.039 ± 0.15 kg/m3
- mass density (313.15 K, x2 = 0.5001): 877.533 ± 0.14 kg/m3
- mass density (313.15 K, x2 = 0.5999): 854.388 ± 0.14 kg/m3
- mass density (313.15 K, x2 = 0.7): 831.308 ± 0.13 kg/m3
- mass density (313.15 K, x2 = 0.8002): 809.555 ± 0.13 kg/m3
- mass density (313.15 K, x2 = 0.8999): 788.57 ± 0.13 kg/m3
- mass density (323.15 K, x2 = 0): 992.364 ± 0.23 kg/m3
- mass density (323.15 K, x2 = 0.1001): 966.92 ± 0.2 kg/m3
- mass density (323.15 K, x2 = 0.1999): 942.073 ± 0.18 kg/m3
- mass density (323.15 K, x2 = 0.3002): 917.361 ± 0.17 kg/m3
- mass density (323.15 K, x2 = 0.4001): 892.673 ± 0.15 kg/m3
- mass density (323.15 K, x2 = 0.5001): 869.138 ± 0.15 kg/m3
- mass density (323.15 K, x2 = 0.5999): 845.897 ± 0.14 kg/m3
- mass density (323.15 K, x2 = 0.7): 822.707 ± 0.14 kg/m3
- mass density (323.15 K, x2 = 0.8002): 800.81 ± 0.14 kg/m3
- mass density (323.15 K, x2 = 0.8999): 779.665 ± 0.14 kg/m3
- mass density (333.15 K, x2 = 0): 984.301 ± 0.23 kg/m3
- mass density (333.15 K, x2 = 0.1001): 958.72 ± 0.2 kg/m3
- mass density (333.15 K, x2 = 0.1999): 933.821 ± 0.18 kg/m3
- mass density (333.15 K, x2 = 0.3002): 909.018 ± 0.17 kg/m3
- mass density (333.15 K, x2 = 0.4001): 884.471 ± 0.16 kg/m3
- mass density (333.15 K, x2 = 0.5001): 860.597 ± 0.15 kg/m3
- mass density (333.15 K, x2 = 0.5999): 837.216 ± 0.14 kg/m3
- mass density (333.15 K, x2 = 0.7): 813.881 ± 0.14 kg/m3
- mass density (333.15 K, x2 = 0.8002): 791.784 ± 0.14 kg/m3
- mass density (333.15 K, x2 = 0.8999): 770.393 ± 0.14 kg/m3
- mass density (343.15 K, x2 = 0): 976.153 ± 0.23 kg/m3
- mass density (343.15 K, x2 = 0.1001): 950.596 ± 0.2 kg/m3
- mass density (343.15 K, x2 = 0.1999): 925.458 ± 0.19 kg/m3
- mass density (343.15 K, x2 = 0.3002): 900.544 ± 0.17 kg/m3
- mass density (343.15 K, x2 = 0.4001): 875.887 ± 0.16 kg/m3
- mass density (343.15 K, x2 = 0.5001): 851.867 ± 0.15 kg/m3
- mass density (343.15 K, x2 = 0.5999): 828.323 ± 0.14 kg/m3
- mass density (343.15 K, x2 = 0.7): 804.773 ± 0.14 kg/m3
- mass density (343.15 K, x2 = 0.8002): 782.457 ± 0.14 kg/m3
- mass density (343.15 K, x2 = 0.8999): 760.722 ± 0.14 kg/m3

SMILES: NCCO [2-aminoethan-1-ol] + CO
- mass density (283.15 K, x2 = 0): 1024.11 ± 0.25 kg/m3
- mass density (283.15 K, x2 = 0.0999): 1012.96 ± 0.22 kg/m3
- mass density (283.15 K, x2 = 0.2): 1000.24 ± 0.19 kg/m3
- mass density (283.15 K, x2 = 0.3001): 985.644 ± 0.18 kg/m3
- mass density (283.15 K, x2 = 0.4): 969.73 ± 0.16 kg/m3
- mass density (283.15 K, x2 = 0.5): 951.484 ± 0.15 kg/m3
- mass density (283.15 K, x2 = 0.6001): 930.19 ± 0.14 kg/m3
- mass density (283.15 K, x2 = 0.7026): 904.556 ± 0.14 kg/m3
- mass density (283.15 K, x2 = 0.7998): 875.763 ± 0.14 kg/m3
- mass density (283.15 K, x2 = 0.8999): 841.316 ± 0.14 kg/m3
- mass density (293.15 K, x2 = 0): 1016.23 ± 0.24 kg/m3
- mass density (293.15 K, x2 = 0.0999): 1005 ± 0.21 kg/m3
- mass density (293.15 K, x2 = 0.2): 992.199 ± 0.19 kg/m3
- mass density (293.15 K, x2 = 0.3001): 977.53 ± 0.18 kg/m3
- mass density (293.15 K, x2 = 0.4): 961.548 ± 0.16 kg/m3
- mass density (293.15 K, x2 = 0.5): 943.204 ± 0.15 kg/m3
- mass density (293.15 K, x2 = 0.6001): 921.795 ± 0.14 kg/m3
- mass density (293.15 K, x2 = 0.7026): 895.978 ± 0.14 kg/m3
- mass density (293.15 K, x2 = 0.7998): 867.002 ± 0.14 kg/m3
- mass density (293.15 K, x2 = 0.8999): 832.282 ± 0.14 kg/m3
- mass density (303.15 K, x2 = 0): 1008.32 ± 0.24 kg/m3
- mass density (303.15 K, x2 = 0.0999): 997.005 ± 0.21 kg/m3
- mass density (303.15 K, x2 = 0.2): 984.108 ± 0.19 kg/m3
- mass density (303.15 K, x2 = 0.3001): 969.37 ± 0.18 kg/m3
- mass density (303.15 K, x2 = 0.4): 953.296 ± 0.17 kg/m3
- mass density (303.15 K, x2 = 0.5): 934.844 ± 0.15 kg/m3
- mass density (303.15 K, x2 = 0.6001): 913.321 ± 0.15 kg/m3
- mass density (303.15 K, x2 = 0.7026): 887.345 ± 0.14 kg/m3
- mass density (303.15 K, x2 = 0.7998): 858.177 ± 0.14 kg/m3
- mass density (303.15 K, x2 = 0.8999): 823.2 ± 0.14 kg/m3
- mass density (313.15 K, x2 = 0): 1000.37 ± 0.23 kg/m3
- mass density (313.15 K, x2 = 0.0999): 988.961 ± 0.21 kg/m3
- mass density (313.15 K, x2 = 0.2): 975.96 ± 0.19 kg/m3
- mass density (313.15 K, x2 = 0.3001): 961.142 ± 0.18 kg/m3
- mass density (313.15 K, x2 = 0.4): 944.973 ± 0.17 kg/m3
- mass density (313.15 K, x2 = 0.5): 926.41 ± 0.16 kg/m3
- mass density (313.15 K, x2 = 0.6001): 904.767 ± 0.15 kg/m3
- mass density (313.15 K, x2 = 0.7026): 878.633 ± 0.14 kg/m3
- mass density (313.15 K, x2 = 0.7998): 849.26 ± 0.14 kg/m3
- mass density (313.15 K, x2 = 0.8999): 814.016 ± 0.14 kg/m3
- mass density (323.15 K, x2 = 0): 992.364 ± 0.23 kg/m3
- mass density (323.15 K, x2 = 0.0999): 980.886 ± 0.21 kg/m3
- mass density (323.15 K, x2 = 0.2): 967.788 ± 0.19 kg/m3
- mass density (323.15 K, x2 = 0.3001): 952.855 ± 0.18 kg/m3
- mass density (323.15 K, x2 = 0.4): 936.722 ± 0.17 kg/m3
- mass density (323.15 K, x2 = 0.5): 917.891 ± 0.16 kg/m3
- mass density (323.15 K, x2 = 0.6001): 896.116 ± 0.15 kg/m3
- mass density (323.15 K, x2 = 0.7026): 869.812 ± 0.15 kg/m3
- mass density (323.15 K, x2 = 0.7998): 840.244 ± 0.14 kg/m3
- mass density (323.15 K, x2 = 0.8999): 804.724 ± 0.15 kg/m3
- mass density (333.15 K, x2 = 0): 984.301 ± 0.23 kg/m3
- mass density (333.15 K, x2 = 0.0999): 972.713 ± 0.21 kg/m3
- mass density (333.15 K, x2 = 0.2): 959.607 ± 0.2 kg/m3
- mass density (333.15 K, x2 = 0.3001): 944.613 ± 0.18 kg/m3
- mass density (333.15 K, x2 = 0.4): 928.096 ± 0.17 kg/m3
- mass density (333.15 K, x2 = 0.5): 909.268 ± 0.16 kg/m3
- mass density (333.15 K, x2 = 0.6001): 887.352 ± 0.15 kg/m3
- mass density (333.15 K, x2 = 0.7026): 860.859 ± 0.15 kg/m3
- mass density (333.15 K, x2 = 0.7998): 831.072 ± 0.15 kg/m3
- mass density (333.15 K, x2 = 0.8999): 795.281 ± 0.15 kg/m3
